This note sets out measurements from US7531500B2, “Preventing airway mucus production by administration of EGF-R antagonists” (The Regents of the University of California, priority 1998, dated 2009).

The test system of experiment [1] is NCI-H292 cells. In words: Northern analysis for MUC5 gene expression in NCI-H292 cells. In kind it is cell-based, human. As to conditions: EGF or TGFα 25 ng/ml, TNFα 20 ng/ml; 12 h, 24 h. The protocol: (§1) Cell culture. A human pulmonary mucoepidermoid carcinoma cell line, NCI-H292 cells, were grown in RPMI11640 medium containing 10% fetal bovine serum, penicillin (100 U/ml), streptomycin (100 μg/ml) at 37° C. in a humidified 5% CO2 water-jacketed incubator. […] In inhibition studies with an EGF-R tyrosine kinase inhibitor, BIBX1522 (10 μg/ml, generously provided by Boehringer Ingelheim Inc., Ingelheim, Germany), cells were pretreated with BIBX1522 30 min before adding growth factors. After incubation, cells grown in a T-75 flask were used for total RNA extraction or protein extraction, and 8-chamber slides were used for Alcian blue/PAS-staining to visualize mucins.

The test system of experiment [2] is NCI-H292 cells. In words: Alcian blue/PAS staining of NCI-H292 cells for mucin glycoproteins. Type of experiment: cell-based, human. To be noted: TNFα 20 ng/ml; EGF, TGFα each 25 ng/ml. The method, then: as §1
For a further experiment, the target named is EGFR (Homo sapiens, UniProt P00533). In words: Immunoblotting for activated EGFR in NCI-H292 cells. Also on record: NCI-H292 cells expressed EGSR mRNA constitutively; endogenous in cells; host or cells: NCI-H292 (human pulmonary mucoepidermoid carcinoma). To be noted: stimulated 15 minutes. Type of experiment: cell-based. The protocol: Cells were serum-starved for 24 hours and then stimulated with cigarette smoke solution or with TGFα for 15 minutes. After stimulation, cells were lysed with lysis buffer (20 mM sodium phosphate, pH 7.8, 150 mM NaCl, 5 mM EDTA, 50 mM HEPES, 1% Triton-X100, 50 mM NaF, 1 mM sodium orthovanadate, 5 mM PMSF, and 10 μg/ml each of leupeptin and aprotinin) and incubated for 30 minutes at 4° C. To remove insoluble materials, cell lysates were centrifuged at 14,000 rpm for 5 minutes at 4° C. Aliquots of supernatants containing equal amounts of protein were suspended in SDS sample buffer and boiled for 5 minutes. Proteins were separated by SDS-PAGE in 4-15% acrylamide gel. The resulting gel was equilibrated in the transfer buffer: 25 mM Tris-HCl, 192 mM glycine, 20% (vol/vol) methanol, pH 8.3. The proteins were then transferred electrophoretically to nitrocellulose membranes, which were incubated with 5% fat-free skimmed milk in PBS containing 0.05% Tween 20 for 1 hour and then incubated with anti-phospho-specific EGFR mAb (2 μg/ml, Calbiochem) overnight. Bound Ab was visualized according to a standard protocol for the avidin-biotin-alkaline phosphatase complex method (ABC kit, Vector Laboratories, Burlingame, Calif.).

Experiment [3] has as its system NCI-H292 cells. In words: In situ hybridization for MUC5AC gene in NCI-H292 cells (Example 2). As to conditions: within 12 h. In kind it is cell-based, human. The protocol:
Cell Culture. NCI-H292 cells, a human pulmonary mucoepidermoid carcinoma cell line, were grown in RPMI 1640 medium containing 10% fetal bovine serum, penicillin (100 U/ml), streptomycin (100 μg/ml) and Hepes (25 mM) at 37° C. in a humidified 5% CO2, water-jacketed incubator. Either 6-well culture plates or 8-chamber slides were used to culture the cells. When confluent, cells were incubated for 1 h with neutrophils (10^6 cells/ml) alone, TNFα alone (recombinant human TNFα, 20 ng/ml, Genzyme, Cambridge, Mass.), IL-8 (recombinant human IL-8, 10^−8 M, Genzyme) alone, fMLP (10^−8 M, Sigma, St. Louis, Mo.) alone, TNFα plus neutrophils, IL-8 plus neutrophils, fMLP plus neutrophils, hydrogen peroxide (H2O2, 200 μM), cigarette smoke solution or TGFα (recombinant human TGFα, 0.1-25 ng/ml, Calbiochem, San Diego, Calif.). The cells were then washed and incubated with fresh medium alone. Experiments were terminated at preselected times (for mRNA, 6 h and 12 h; for protein, 24 h). As controls, cells were incubated with medium alone for same time periods. […] NCI-H292 cells were incubated for 1 h with either neutrophils that had been incubated with TNFα (20 ng/ml) for 1 h and then washed with sterile PBS to avoid contamination with the supernatant (e.g., molecules released from neutrophils), or the NCI-H292 cells were incubated with supernatant only. […]

As for “TGFα: transforming growth factor alpha, EGF-R ligand (recombinant human; rat synthetic in vivo)”, the “MUC5 gene expression on incubation with mediator” value in the experiment on NCI-H292 cells [1] is recorded as “clearly expressed at 24 h”. The “PAS-positive staining on incubation with mediator” value in the experiment on NCI-H292 cells [2] was “increased PAS-positive staining”. Moreover, in the experiment with EGFR, the EGFR-specific tyrosine phosphorylation entry was “increased”. Further, the MUC5AC gene expression result with NCI-H292 cells [3] is recorded as “up-regulated”.
